The subject of assay [1] is BV-2. The experiment in a line: Inhibition of LPS-induced NO production in mouse BV2 cells. The format is functional, cell-based.
A short description of assay [2]: Peroxynitrite scavenging activity assessed as inhibition of DHR 123 oxidation. The format is functional.
The test system of assay [3] is BV-2. Nature of the assay: Decrease in iNOS protein expression in LPS-activated mouse BV2 cells at 20 uM. The format is functional, cell-based.

The source made the active and inactive calls. The rule behind the calls is not given here.

As usually defined, the IC50 is the concentration that inhibits the measured activity by half. Low values mean inhibition by little substance, high ones a need for much substance. In turn, `CNC(=N)NCCC[C@H](N)C(=O)O` [TILARGININE] registered a concentration for half-maximal inhibition (IC50) with BV-2 [1] of 13.2 µM. This counts as double-digit micromolar.

For the compound `CC(C)(S)[C@@H](N)C(=O)O`, in assay [2], the SC50 came to 5.13 µM.

Turning to `COc1c(-c2ccc(O)c(O)c2)oc2cc(O)cc(O)c2c1=O` [3-O-METHYLQUERCETIN], the midpoint of inhibition with BV-2 [1], the IC50, lay at 3.8 µM. The result in the assay with BV-2 [3] was Active. For the same compound, the SC50 in assay [2] was 0.77 µM.

As for `O=c1c(O)c(-c2ccc(O)c(O)c2)oc2cc(O)cc(O)c12` [QUERCETIN], the IC50 in the assay on BV-2 [1] was determined as 29.6 µM.
